According to patent publication US6818780B2, “P-hydroxyphenyl propionic acid derivatives as antiproliferative agents” (Consejo Superior de Investigaciones Cientificas, priority 2000, dated 2004):

Test system: human peripheral blood mononuclear cells (CMSP)
Experiment: Test on lymphocyte proliferation: human peripheral blood mononuclear cells (3H-thymidine incorporation), with or without rhIL-2
Type: cell-based
Details: for Proliferation of human peripheral blood mononuclear cells, Con A 2 μg/ml (cpm ± DS) / Proliferation of human peripheral blood mononuclear cells, Medium (cpm ± DS) / Proliferation of human peripheral blood mononuclear cells, PHA 10 μg/ml (cpm ± DS) / Proliferation of human peripheral blood mononuclear cells, aCD3 5 μg/ml (cpm ± DS) / Proliferation of human peripheral blood mononuclear cells, aCD3 + Con A (cpm ± DS) / Proliferation of human peripheral blood mononuclear cells, aCD3 + PHA (cpm ± DS): no rhIL-2; for Proliferation of human peripheral blood mononuclear cells, Con A 2 μg/ml (cpm ± DS) / Proliferation of human peripheral blood mononuclear cells, Medium (cpm ± DS) / Proliferation of human peripheral blood mononuclear cells, PHA 10 μg/ml (cpm ± DS) / Proliferation of human peripheral blood mononuclear cells, aCD3 5 μg/ml (cpm ± DS) / Proliferation of human peripheral blood mononuclear cells, aCD3 + Con A (cpm ± DS) / Proliferation of human peripheral blood mononuclear cells, aCD3 + PHA (cpm ± DS) / Proliferation of human peripheral blood mononuclear cells in the presence of rhIL-2, Con A 2 μg/ml (cpm ± DS) / Proliferation of human peripheral blood mononuclear cells in the presence of rhIL-2, Medium (cpm ± DS) / Proliferation of human peripheral blood mononuclear cells in the presence of rhIL-2, PHA 10 μg/ml (cpm ± DS) / Proliferation of human peripheral blood mononuclear cells in the presence of rhIL-2, aCD3 5 μg/ml (cpm ± DS) / Proliferation of human peripheral blood mononuclear cells in the presence of rhIL-2, aCD3 + Con A (cpm ± DS) / Proliferation of human peripheral blood mononuclear cells in the presence of rhIL-2, aCD3 + PHA (cpm ± DS): 5 days; for Proliferation of human peripheral blood mononuclear cells in the presence of rhIL-2, Con A 2 μg/ml (cpm ± DS) / Proliferation of human peripheral blood mononuclear cells in the presence of rhIL-2, Medium (cpm ± DS) / Proliferation of human peripheral blood mononuclear cells in the presence of rhIL-2, PHA 10 μg/ml (cpm ± DS) / Proliferation of human peripheral blood mononuclear cells in the presence of rhIL-2, aCD3 5 μg/ml (cpm ± DS) / Proliferation of human peripheral blood mononuclear cells in the presence of rhIL-2, aCD3 + Con A (cpm ± DS) / Proliferation of human peripheral blood mononuclear cells in the presence of rhIL-2, aCD3 + PHA (cpm ± DS): rhIL-2 100 UI/ml
Source text: Tests on Human Peripheral Blood Mononuclear Cells Material and Methods:
In order to study more deeply the effects of lactone on cell proliferation, we checked whether the effects described in the above section on cells of murine origin were specific to the cell type and the species or whether, on the other hand, these effects were xeno-independent. For this, we purified human peripheral blood mononuclear cells from healthy controls and we proceeded to study the possible effects of inhibition on the proliferative activity of peripheral blood mononuclear cells (CMSP) from humans, induced by different mitogenic agents acting alone and/or in costimulation with other mitogens and in the presence or absence of recombinant human interleukin 2 (rhIL-2).
Mitogens: Phytohaemaglutinin M (PHA) (Difco Lab., Detroit, Mich., USA), Concanavalin A (Con A, 2 μg/ml, Sigma Chemical Co., Mich., USA), Immobilised anti-CD3 (OKT3, 5 μg/ml, Ortho-mune, Orthodiagnostic System) and rhIL-2 (100 IU/ml, Hoffman-La Roche, N.J., USA).
All the reagents included in these tests were diluted in RPMI 1640 culture medium (Whitaker Bioproducts, Walkersville, USA) supplemented with 10% of decomplemented foetal calf serum (Biochrom K G, Berlin), L-glutamin (2 mM, Biochrom K G), Hepes (25 mM, Biochrom K G) and antibiotic (1% penicillin streptomycin, Difco Lab, Detroit, Mich., USA).
Also, all the mitogens were optimised in a dose response way in order to obtaining the maximum proliferative response after 5 days of culture.
Venous blood: The CMSP were obtained from venous blood extracted by antecubital venous puncture. 50 ml of blood were extracted to which were added 50 U of calcic heparin and the mixture was diluted 1/1 (vol/vol) with PSS.
Human mononucleated cells: In order to isolate the CMSP they were proceeded to be separated from the rest of the blood components by means of the formation of a density gradient on Ficoll. The cells thus obtained are resuspended in PSS and centrifuged at 400×g for 10 minutes (washing process) and then resuspended in PSS. This operation is repeated three times. In the last of them, PSS is replaced with complete medium.
General culture conditions: All cell cultures were developed under conditions of sterility in a vertical laminar flow chamber, using single-use sterile materials or materials sterilised in an autoclave or with ethylene oxide. The cultures were conserved in a stove kept at a temperature of 37° C., in an atmosphere with 5% CO2 and relative humidity of 95%. In the various experiments performed, the purified CMSP cell preparations were incubated in sterile dishes with 96 wells at concentrations of 5×10^4 cells/well (200 μl) in the presence of different concentrations of different mitogens for 5 days.
The method used for quantifying the cell proliferation was analysis of the incorporation of ^3H-thymidine (^3H-T) into DNA synthesised de novo, detecting the emission of β radiation from the dry extracts of cell cultures to which the tritiated base had been added before its finalisation and collection. The synthesis of DNA was done in triplicate on sterile dishes with 96 flat-bottom wells.
From 20 to 24 hour prior to terminating the cell culture, 1 μCi of ^3H-T was added to each well containing medium; the cultures were gathered by suction through a glass filter, using a Skatron culture collector for this.
The synthesis of DNA has been expressed in counts per minute (cpm). Each test was conducted in triplicate, with those data having a variability greater than 10% compared to the mean of the triplicate being rejected, since they could indicate a technical error or contamination in the culture. The cultures were carried out at a constant cell volume per well, as well as at a constant volume of 200 μl.
Negative Control: Cells in the Presence of Complete Culture Medium
Positive Control: Stimulation of Cells without the Presence of Lactone […]

C=C1C(=O)OC(CCc2ccc(OC)cc2)C1C (stereo not drawn) [lactone]
Proliferation of human peripheral blood mononuclear cells, Con A 2 μg/ml (cpm ± DS) (Lactone 10 μg/ml): 48 ± 7 cpm | Proliferation of human peripheral blood mononuclear cells, Medium (cpm ± DS) (Lactone 10 μg/ml): 72 ± 72 cpm | Proliferation of human peripheral blood mononuclear cells, PHA 10 μg/ml (cpm ± DS) (Lactone 10 μg/ml): 71 ± 14 cpm | Proliferation of human peripheral blood mononuclear cells, aCD3 5 μg/ml (cpm ± DS) (Lactone 10 μg/ml): 119 ± 7 cpm | Proliferation of human peripheral blood mononuclear cells, aCD3 + Con A (cpm ± DS) (Lactone 10 μg/ml): 11 ± 1 cpm | Proliferation of human peripheral blood mononuclear cells, aCD3 + PHA (cpm ± DS) (Lactone 10 μg/ml): 23 ± 7 cpm | Proliferation of human peripheral blood mononuclear cells in the presence of rhIL-2, Con A 2 μg/ml (cpm ± DS) (Lactone 10 μg/ml): 611 ± 75 cpm | Proliferation of human peripheral blood mononuclear cells in the presence of rhIL-2, Medium (cpm ± DS) (Lactone 10 μg/ml): 866 ± 66 cpm | Proliferation of human peripheral blood mononuclear cells in the presence of rhIL-2, PHA 10 μg/ml (cpm ± DS) (Lactone 10 μg/ml): 579 ± 1033 cpm | Proliferation of human peripheral blood mononuclear cells in the presence of rhIL-2, aCD3 5 μg/ml (cpm ± DS) (Lactone 10 μg/ml): 489 ± 25 cpm | Proliferation of human peripheral blood mononuclear cells in the presence of rhIL-2, aCD3 + Con A (cpm ± DS) (Lactone 10 μg/ml): 164 ± 65 cpm | Proliferation of human peripheral blood mononuclear cells in the presence of rhIL-2, aCD3 + PHA (cpm ± DS) (Lactone 10 μg/ml): 304 ± 35 cpm | Proliferation of human peripheral blood mononuclear cells, Con A 2 μg/ml (cpm ± DS) (Lactone 100 μg/ml): 204 ± 43 cpm | Proliferation of human peripheral blood mononuclear cells, Medium (cpm ± DS) (Lactone 100 μg/ml): 104 ± 26 cpm | Proliferation of human peripheral blood mononuclear cells, PHA 10 μg/ml (cpm ± DS) (Lactone 100 μg/ml): 1086 ± 308 cpm | Proliferation of human peripheral blood mononuclear cells, aCD3 5 μg/ml (cpm ± DS) (Lactone 100 μg/ml): 39 ± 10 cpm | Proliferation of human peripheral blood mononuclear cells, aCD3 + Con A (cpm ± DS) (Lactone 100 μg/ml): 8 ± 6 cpm | Proliferation of human peripheral blood mononuclear cells, aCD3 + PHA (cpm ± DS) (Lactone 100 μg/ml): 13 ± 4 cpm | Proliferation of human peripheral blood mononuclear cells in the presence of rhIL-2, Con A 2 μg/ml (cpm ± DS) (Lactone 100 μg/ml): 532 ± 109 cpm | Proliferation of human peripheral blood mononuclear cells in the presence of rhIL-2, Medium (cpm ± DS) (Lactone 100 μg/ml): 918 ± 1 cpm | Proliferation of human peripheral blood mononuclear cells in the presence of rhIL-2, PHA 10 μg/ml (cpm ± DS) (Lactone 100 μg/ml): 892 ± 199 cpm | Proliferation of human peripheral blood mononuclear cells in the presence of rhIL-2, aCD3 5 μg/ml (cpm ± DS) (Lactone 100 μg/ml): 400 ± 44 cpm | Proliferation of human peripheral blood mononuclear cells in the presence of rhIL-2, aCD3 + Con A (cpm ± DS) (Lactone 100 μg/ml): 237 ± 109 cpm | Proliferation of human peripheral blood mononuclear cells in the presence of rhIL-2, aCD3 + PHA (cpm ± DS) (Lactone 100 μg/ml): 286 ± 10 cpm | Lactone concentration at which the blastogen response induced in CMSP falls by 50% (induced by Con A+rhIL-2): 0.27 µg/mL | Lactone concentration at which the blastogen response induced in CMSP falls by 50% (induced by Concavalin A (Con A)): 0.5 µg/mL | Lactone concentration at which the blastogen response induced in CMSP falls by 50% (induced by PHA+rhIL-2): 0.29 µg/mL | Lactone concentration at which the blastogen response induced in CMSP falls by 50% (induced by aCD3+Con A): 0.21 µg/mL | Lactone concentration at which the blastogen response induced in CMSP falls by 50% (induced by aCD3+PHA): 0.24 µg/mL | Lactone concentration at which the blastogen response induced in CMSP falls by 50% (induced by immobilised aCD3+Con A+rhIL-2): 0.25 µg/mL | Lactone concentration at which the blastogen response induced in CMSP falls by 50% (induced by immobilised aCD3+PHA+rhIL-2): 0.26 µg/mL | Lactone concentration at which the blastogen response induced in CMSP falls by 50% (induced by immobilised aCD3+rhIL-2): 0.24 µg/mL | Lactone concentration at which the blastogen response induced in CMSP falls by 50% (induced by immobilised anti-CD3 (aCD3)): 0.06 µg/mL | Lactone concentration at which the blastogen response induced in CMSP falls by 50% (induced by phytohaemaglutinin M (PHA)): 0.25 µg/mL | Lactone concentration at which the blastogen response induced in CMSP falls by 50% (induced by rhIL-2): 0.26 µg/mL | Lactone concentration at which the spontaneous blastogen response of the CMSP falls by 50% (no mitogen): 0.66 µg/mL
